Results reported in paper PMC6493276, “Quantification of 1D, a novel derivative of curcumin with potential antitumor activity, in rat plasma by liquid chromatography-tandem mass spectrometry: application to a pharmacokinetic study in rats” (Pharmaceutical Biology, 2019).

Assays:
[1] = Pharmacokinetic study in rats after single intravenous administration; format: in vivo; settings: male, Sprague-Dawley, rat, plasma
Protocol: The applicability of the developed bioanalytical LC-MS/MS method was evaluated by quantitative determination of 1 D in rat plasma after single intravenous administration. All experimental procedures and animal care were performed following approval from the Ethic Committee of Laboratory Animals of the Affiliated Hospital of Qingdao University. Six male Sprague–Dawley rats, weighing 200 ± 15 g, were obtained from Beijing Vital River Experimental Animal Co. Ltd (Beijing, China). The animals were quarantined for 1 week prior to the study and were maintained on a 12 h light/12 h dark cycle at 22 ± 2 °C and at 50 ± 10% relative humidity. The rodents were given a commercial rat chow and water ad libitum. An intravenous dose of 5 mg/kg was selected based on our previous toxicological and pharmacodynamic studies in rats (unpublished data). The administration solution was prepared by dissolving 1 D in PEG400: PG400: DMSO: saline (30: 30: 1: 39, v/v/v/v) to give a concentration of 2 mg/mL. After fasting overnight, rats were given the prepared administration solution at 5 mg/kg via the tail vein. Blood samples (0.2 mL) were collected into heparinized tubes by retro-orbital puncture at 0 (pre-dose), 5, 10, 20, 30, and 45 min, and 1, 1.5, 2, 4, 8, 12, and 24 h after dosing. Plasma was separated by centrifugation at 4500 rpm for 10 min and stored at −20 °C until analysis. The pharmacokinetic parameters including area under the concentration-time curve (AUC), apparent volume of distribution (Vz), elimination half-life (t1/2), and clearance (CLz) were calculated by a non-compartmental analysis method using the DAS 3.0.2 pharmacokinetic programme. As observable parameters, the maximum plasma concentration (Cmax) and the time to reach the maximum concentration (Tmax) were obtained directly.

[2] = test system: A549 cells; set-up: method as in Tong et al. [2016]; settings: treatment for 48 h, ref Tong et al. [2016]; cited from earlier work
[3] = test system: HJ1299 cells; set-up: method as in Tong et al. [2016]; settings: treatment for 48 h, ref Tong et al. [2016]; cited from earlier work
[4] = test system: HCT116 cells; set-up: method as in Tong et al. [2016]; settings: treatment for 48 h, ref Tong et al. [2016]; cited from earlier work
[5] = test system: HT29 cells; set-up: method as in Tong et al. [2016]; settings: treatment for 48 h, ref Tong et al. [2016]; cited from earlier work
[6] = Stability of 1 D in rat plasma under various storage conditions; format: in vitro ADME; settings: for Accuracy / Measured concentration (mean ± SD): n = 5
Protocol: The stability of 1 D in rat plasma was evaluated in five replicates at three QC levels under various storage conditions. […] Short-term and long-term stability were evaluated by storing plasma samples at room temperature for 6 h and −20 °C for 1 month before sample preparation. Freeze-thaw stability of QC samples was assessed after three freeze-thaw cycles (−20 to 25 °C). Autosampler stability was evaluated by keeping the extracted plasma samples in the autosampler for 24 h before analysis. Samples were considered to be stable if assay values were within the acceptable limits of accuracy (±15%) and precision (15% RSD).

[7] = single intravenous 5 mg/kg, n = 6
[8] = extracted rat plasma, spiked 10 ng/mL, autosampler for 24 h
[9] = extracted rat plasma, spiked 100 ng/mL, autosampler for 24 h
[10] = extracted rat plasma, spiked 500 ng/mL, autosampler for 24 h
[11] = rat plasma, spiked 10 ng/mL, 4 weeks at −20 °C
[12] = rat plasma, spiked 10 ng/mL, 6 h at 25 °C
[13] = rat plasma, spiked 10 ng/mL, three freeze-thaw cycles
[14] = rat plasma, spiked 100 ng/mL, 4 weeks at −20 °C
[15] = rat plasma, spiked 100 ng/mL, 6 h at 25 °C
[16] = rat plasma, spiked 100 ng/mL, three freeze-thaw cycles
[17] = rat plasma, spiked 500 ng/mL, 4 weeks at −20 °C
[18] = rat plasma, spiked 500 ng/mL, 6 h at 25 °C
[19] = rat plasma, spiked 500 ng/mL, three freeze-thaw cycles

In the case of `Br.COc1ccc(/C=C/c2cc(/C=C/c3ccc(OC)cc3)nc(OCCCCSC(=N)N)n2)cc1` [1 D, (E,E)-4-(4,6-bis(4-methoxystyryl)pyrimidin-2-yloxy)butyl carbamimidothioate hydrobromide], the AUC(0-t) ([1]; 5 mg/kg, intravenous administration, non-compartmental (abstract)) is reported as 807 ng·h/mL, the Cmax [1, 7] is reported as 610 ng/mL and the Tmax [1, 7] is reported as 4.8 min. The AUC(0-inf) ([1]; single intravenous 5 mg/kg, n = 6, non-compartmental) was 853 ng·h/mL, the clearance ([1]; single intravenous 5 mg/kg, n = 6, read-out: CLz (clearance) (converted)) was 106 mL/min/kg and the MRT last ([1]; single intravenous 5 mg/kg, n = 6, read-out: MRT(0−t)) was 3.4 h. For the same compound, the MRT inf ([1]; single intravenous 5 mg/kg, n = 6, read-out: MRT(0−∞)) was 4.7 h, the Vd ([1]; single intravenous 5 mg/kg, n = 6, read-out: Vz (apparent volume of distribution)) was 46.6 L/kg and the half-life ([1]; single intravenous 5 mg/kg, n = 6, read-out: t1/2 (elimination half-life) (converted)) was 295 min. The IC50 [2] was 990 nM, the IC50 [3] was 920 nM and the IC50 [4] was 1000 nM. For the same compound, the IC50 [5] was 790 nM, the Accuracy [6, 8] was 103.6% and the “Measured concentration (mean ± SD)” value [6, 8] was 10.36 ± 0.75 ng/mL. The Accuracy [6, 9] was 101.5%, the “Measured concentration (mean ± SD)” value [6, 9] was 101.51 ± 6.43 ng/mL and the Accuracy [6, 10] was 96.2%. For the same compound, the “Measured concentration (mean ± SD)” value [6, 10] was 481.19 ± 42.98 ng/mL, the Accuracy [6, 11] was 106.1% and the “Measured concentration (mean ± SD)” value [6, 11] was 10.61 ± 0.55 ng/mL. For the same compound, the Accuracy [6, 12] was 102.7%, the “Measured concentration (mean ± SD)” value [6, 12] was 10.27 ± 0.56 ng/mL and the Accuracy [6, 13] was 101.2%. For the same compound, the “Measured concentration (mean ± SD)” value [6, 13] was 10.12 ± 0.66 ng/mL, the Accuracy [6, 14] was 98.4% and the “Measured concentration (mean ± SD)” value [6, 14] was 98.39 ± 7.52 ng/mL. For the same compound, the Accuracy [6, 15] was 104.7%, the “Measured concentration (mean ± SD)” value [6, 15] was 104.71 ± 5.16 ng/mL and the Accuracy [6, 16] was 99.4%. The “Measured concentration (mean ± SD)” value [6, 16] was 99.36 ± 6.92 ng/mL, the Accuracy [6, 17] was 103.7% and the “Measured concentration (mean ± SD)” value [6, 17] was 518.57 ± 43.30 ng/mL. For the same compound, the Accuracy [6, 18] was 106.1%, the “Measured concentration (mean ± SD)” value [6, 18] was 530.28 ± 34.32 ng/mL and the Accuracy [6, 19] was 100.8%. For the same compound, the “Measured concentration (mean ± SD)” value [6, 19] was 503.88 ± 33.79 ng/mL and the “Changes in concentrations after storage (stability in rat plasma)” value ([6]; room temperature 6 h, −20 °C 1 month, autosampler 24 h, three freeze-thaw cycles) was “No significant changes”.
